Experimental data as given in patent EP0294258A1, “Hydrazine derivatives, process for obtaining them and pharmaceutical composition containing them” (priority 1987, dated 1988).
Read-outs that look alike come from different tables or passages of the source.

Legend:
[1] = system: rat spontanément hypertendu (S.H.R.); experiment: Antihypertensive activity in the spontaneously hypertensive rat (SHR); assay type: in vivo; conditions: for minimal effective dose: Rattus norvegicus, read-out: Activité anti-hypertensive SHR Dose minimale active
Acute toxicity (DL 50) = conditions: in vivo
souris [2] = experiment: Analgesic activity, P.B.Q. test; conditions: in vivo
souris [3] = experiment: Hypothermia; assay type: in vivo; conditions: I.P.
souris [4] = experiment: Exploratory activity; assay type: in vivo; conditions: Mus musculus, ip; I.P.; read-out: diminue l'activité d'exploration D.E.50
souris [5] = experiment: Apomorphine test; conditions: in vivo
souris [6] = experiment: Spontaneous motility; assay type: in vivo; conditions: I.P.
souris [7] = experiment: Yohimbine test; conditions: in vivo
souris [8] = experiment: Oxotremorine test; assay type: in vivo; conditions: à forte dose
rat normotendu = experiment: Cardiovascular effects in the normotensive rat; assay type: in vivo; conditions: 50 mg.kg^-1 I.P.
rat = experiment: Anti-inflammatory activity, carrageenan test; assay type: in vivo; conditions: I.P.
souris [9] = experiment: Antagonism of amphetamine hypermotility; assay type: in vivo; conditions: I.P.
souris [10] = experiment: Potentiation of barbiturate sleep; assay type: in vivo; conditions: I.P.
souris [11] = experiment: Motor incoordination; assay type: in vivo; conditions: I.P.
souris [12] = experiment: Analgesic activity, hot plate; assay type: in vivo; conditions: I.P.

Structure (SMILES) | Activité anti-hypertensive SHR Dose minimale active ([1]; route not given) | LD50 (Acute toxicity (DL 50); ip, I.P.) [mg/kg] | minimal effective dose ([1]; ip, I.P.) [mg/kg] | other results
CC(C)(O)CC(=O)NN=Cc1ccccc1Cl [1d, reference compound] | inactif | 433 | – | –
CSCC(=O)NN=C(C)c1ccccc1Cl [Exemple 8, (méthylthio-2 acétyl)-1 (orthochlorophényl-1 éthylidène-1)-2 hydrazine] | – | > 400 | 12.5 | –
COCC(=O)NN=Cc1ccccc1Cl [6a, reference compound] | inactif | 477 | – | –
CC(O)C(=O)NN=Cc1ccccc1Cl (stereo not shown) [3a, reference compound] | inactif | – | – | LD50 (Acute toxicity (DL 50); route not given): 300 mg/kg
CC(C)(O)C(=O)NN=Cc1ccc(Cl)cc1 [1c, reference compound] | inactif | 660 | – | –
CC(=NNC(=O)CC(C)(C)O)c1ccccc1Cl [1e, reference compound] | inactif | 227 | – | –
CC(=NNC(=O)CO)c1ccccc1Cl [Exemple 4, (hydroxy-2 acétyl)-1 (orthochlorophényl-1 éthylidène-1)-2 hydrazine] | – | 583 | – | minimal effective dose ([1]; route not given): 3.13 mg/kg
CC(=NNC(=O)C(N)=O)c1ccccc1Cl [Exemple 9, oxamoyl-1 (orthochlorophényl-1 éthylidène-1)-2 hydrazine] | – | > 400 | 12.5 | –
CC(=NNC(=O)C(C)(C)O)c1ccc(Cl)cc1 [1b, reference compound] | inactif | 150 | – | –
CC(=NNC(=O)C(C)O)c1ccccc1Cl (stereo not shown) [Exemple 3, (hydroxy-2 propanoyl)-1 (orthochlorophényl-1 éthylidène-1)-2 hydrazine] | – | 240 | 12.5 | –
CC(=NNC(=O)CN)c1ccccc1Cl [Exemple 7, (amino-2 acétyl)-1 (orthochlorophényl-1 éthylidène-1)-2 hydrazine] | – | 143 | – | minimal effective dose ([1]; po, P.O.): 2 mg/kg
CC(C)(O)C(=O)NN=Cc1ccccc1Cl [1a, reference compound] | inactif | 490 | – | –
CCC(=NNC(=O)C(C)(C)O)c1ccccc1Cl [Exemple 16, (hydroxy-2 isobutyroyl)-1 (orthochlorophényl-1 propylidène-1)-2 hydrazine] | – | 179 | 6.25 | –
CC(=NNC(=O)C(C)(C)O)c1ccccc1Cl [Exemple 1, (hydroxy-2 isobutyroyl)-1 (orthochlorophényl-1 éthylidène-1)-2 hydrazine] | – | 482 | – | minimal effective dose ([1]; po, P.O.): 2 mg/kg; fréquence cardiaque ([1]; administration P.O.): n'est pas modifiée de manière significative; action antihypertensive ([1]; administration répétée sur 5 jours, 1,5 mg.kg^-1 P.O.): confirment l'action antihypertensive; diminue la pression artérielle du rat spontanément hypertendu (S.H.R.) D.E.so ([1]; administration unique, I.P.): 1,9 mg.kg^-1; action antihypertensive D.E.50 ([1]; administration unique, P.O.): 2 mg/kg; activité antihypertensive (dose) ([1]; per os, rat SHR printed for MP 440 only): 2 mg/kg; activité analgésique au test à la P.B.Q. (souris [2]): faible; hypothermie uniquement à forte dose (souris [3]): 50 mg/kg; ED50 (souris [4]): 27 mg/kg; test à l'apomorphine (souris [5]): inactif; diminue la motilité spontanée D.E.50 (souris [6]): 10 mg/kg; test de la yohimbine (souris [7]): inactif; test à l'oxotrémorine (souris [8]): modifie de façon peu nette; pression artérielle du rat normotendu (rat normotendu): sans modifier; rythme cardiaque du rat normotendu (rat normotendu): augmente significativement; anti-inflammatoire sur le test à la carraghénine D.E.so (rat): 38 mg/kg; antagonise l'hypermotilité amphétaminique à partir de (dose) (souris [9]): ≥ 12,5 mg.kg^-1; potentialise le sommeil barbiturique dès la dose de (souris [10]): ≥ 12,5 mg.kg^-1; incoordination motrice uniquement à forte dose (souris [11]): 50 mg/kg; activité analgésique "plaque chauffante" D.E.50 (souris [12]): 6 mg/kg
NC(=O)C(=O)NN=Cc1ccccc1Cl [9a, reference compound] | inactif | > 400 | – | –
NCC(=O)NN=Cc1ccccc1Cl [7a, reference compound] | inactif | 360 | – | –
COCC(=O)NN=C(C)c1ccccc1Cl [Exemple 6, (méthoxy-2 acétyl)-1 (orthochlorophényl-1 éthylidène-1)-2 hydrazine] | – | 200 | 6.25 | –
CCCCC(=NNC(=O)C(C)(C)O)c1ccccc1Cl [Exemple 26, (hydroxy-2 isobutyroyl)-1 (chloro-2 phényl-1 pentylidène-1)-2 hydrazine] | – | > 400 | 6.25 | –
